Assay results: patent US10053465B2 (Incyte Corporation, priority 2015, dated 2018)
Read-outs that look alike come from different tables or passages of the source.

Experiments:
[1] = target: Phospho-Axl (Homo sapiens (Human), UniProt P30530); assay: biochemical;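 further: test system is recombinant Axl protein that was first autophosphorylated with ATP and MgCl2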
Protocol: Autophosphorylation of Axl was carried out by incubating the recombinant Axl protein (Life Technologies, PV4275) in buffer containing 50 mM Tris, pH7.5, 0.2 mg/ml Axl, 5 mM ATP, 20 mM MgCl2 and 2 mM DTT at room temperature for 1 hour.
(§1) 0.1 ul test compounds dissolved in DMSO were transferred from compound plates to white 384-well assay plates (Greiner [sequence] plates). […] The plate was protected from light and incubated at room temperature for 60 min.

[2] = target: Tyro3 (Homo sapiens (Human), UniProt Q06418); assay: biochemical; conditions: read-out: Tyro3IC50
Protocol: as §1

[3] = target: T1, c-Mer (Homo sapiens (Human), UniProt Q12866); conditions: read-out: c-Mer IC50; HTRF, 60 min room temperature
T1 sequence (Q12866 21-999): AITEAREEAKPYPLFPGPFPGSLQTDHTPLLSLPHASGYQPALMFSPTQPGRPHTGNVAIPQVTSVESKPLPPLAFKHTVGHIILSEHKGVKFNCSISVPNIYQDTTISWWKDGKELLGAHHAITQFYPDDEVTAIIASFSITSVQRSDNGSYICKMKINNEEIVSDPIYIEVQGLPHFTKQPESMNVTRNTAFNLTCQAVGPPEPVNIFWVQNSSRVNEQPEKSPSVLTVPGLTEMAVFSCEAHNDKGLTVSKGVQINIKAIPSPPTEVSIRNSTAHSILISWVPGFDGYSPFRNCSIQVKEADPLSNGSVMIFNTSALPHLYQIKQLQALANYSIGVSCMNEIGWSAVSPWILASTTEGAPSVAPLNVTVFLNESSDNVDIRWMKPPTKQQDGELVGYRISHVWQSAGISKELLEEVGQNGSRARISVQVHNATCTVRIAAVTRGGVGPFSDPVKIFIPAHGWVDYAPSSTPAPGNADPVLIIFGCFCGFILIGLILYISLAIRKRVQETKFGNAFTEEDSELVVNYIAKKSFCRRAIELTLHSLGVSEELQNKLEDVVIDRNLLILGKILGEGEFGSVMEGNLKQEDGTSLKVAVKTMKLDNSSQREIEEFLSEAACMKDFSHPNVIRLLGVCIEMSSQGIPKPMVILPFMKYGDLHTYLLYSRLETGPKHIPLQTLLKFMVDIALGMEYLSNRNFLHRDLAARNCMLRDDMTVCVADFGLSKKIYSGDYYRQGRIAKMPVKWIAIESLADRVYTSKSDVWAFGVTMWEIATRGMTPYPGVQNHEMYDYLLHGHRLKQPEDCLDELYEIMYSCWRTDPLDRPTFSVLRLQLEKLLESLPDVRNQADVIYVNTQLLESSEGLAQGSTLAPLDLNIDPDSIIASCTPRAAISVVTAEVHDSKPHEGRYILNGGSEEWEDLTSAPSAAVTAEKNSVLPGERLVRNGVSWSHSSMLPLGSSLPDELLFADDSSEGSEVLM
Protocol: as §1

[4] = target: T1, c-Mer; assay: biochemical
Protocol: as §1

[5] = test system: tumor models with different histologies; conditions: Paolino et al., 2014; cited from earlier work
[6] = test system: NK cells; conditions: Paolino et al., 2014; cited from earlier work
[7] = target: JAK2 (Homo sapiens (Human), UniProt O60674); conditions: ratio of IC50 at 1 mM ATP; cited from earlier work
Sequence of JAK2 (O60674 whole entry, species assumed): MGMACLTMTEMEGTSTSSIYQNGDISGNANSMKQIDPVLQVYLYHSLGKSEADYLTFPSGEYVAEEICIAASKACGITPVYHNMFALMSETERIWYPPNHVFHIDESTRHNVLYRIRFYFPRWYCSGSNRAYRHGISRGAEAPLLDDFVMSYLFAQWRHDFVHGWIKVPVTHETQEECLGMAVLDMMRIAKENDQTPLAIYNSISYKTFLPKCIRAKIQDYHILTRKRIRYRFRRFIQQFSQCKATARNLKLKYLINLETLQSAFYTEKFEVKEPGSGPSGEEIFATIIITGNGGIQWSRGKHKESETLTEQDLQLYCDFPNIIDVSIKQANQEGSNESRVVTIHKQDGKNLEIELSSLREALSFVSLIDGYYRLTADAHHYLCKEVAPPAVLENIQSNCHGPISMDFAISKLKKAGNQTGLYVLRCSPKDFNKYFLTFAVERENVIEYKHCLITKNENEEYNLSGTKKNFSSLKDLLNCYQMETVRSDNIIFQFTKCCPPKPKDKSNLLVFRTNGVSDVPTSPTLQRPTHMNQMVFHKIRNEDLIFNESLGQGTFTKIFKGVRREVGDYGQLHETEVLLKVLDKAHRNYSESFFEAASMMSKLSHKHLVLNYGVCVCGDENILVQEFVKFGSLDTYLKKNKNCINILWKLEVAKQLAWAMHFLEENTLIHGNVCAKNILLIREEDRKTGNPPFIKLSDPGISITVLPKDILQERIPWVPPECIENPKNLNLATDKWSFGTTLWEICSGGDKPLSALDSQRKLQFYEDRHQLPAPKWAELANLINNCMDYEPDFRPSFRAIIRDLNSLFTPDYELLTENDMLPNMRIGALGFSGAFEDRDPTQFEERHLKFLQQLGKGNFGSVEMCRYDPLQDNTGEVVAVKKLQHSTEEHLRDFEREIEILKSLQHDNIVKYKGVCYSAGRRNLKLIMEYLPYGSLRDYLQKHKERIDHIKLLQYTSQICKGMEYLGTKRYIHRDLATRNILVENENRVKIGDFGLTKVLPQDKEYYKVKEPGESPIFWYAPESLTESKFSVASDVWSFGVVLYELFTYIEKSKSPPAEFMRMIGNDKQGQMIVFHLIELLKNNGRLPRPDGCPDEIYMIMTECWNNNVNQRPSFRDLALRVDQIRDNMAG

Sequence of Tyro3 (Q06418 41-890): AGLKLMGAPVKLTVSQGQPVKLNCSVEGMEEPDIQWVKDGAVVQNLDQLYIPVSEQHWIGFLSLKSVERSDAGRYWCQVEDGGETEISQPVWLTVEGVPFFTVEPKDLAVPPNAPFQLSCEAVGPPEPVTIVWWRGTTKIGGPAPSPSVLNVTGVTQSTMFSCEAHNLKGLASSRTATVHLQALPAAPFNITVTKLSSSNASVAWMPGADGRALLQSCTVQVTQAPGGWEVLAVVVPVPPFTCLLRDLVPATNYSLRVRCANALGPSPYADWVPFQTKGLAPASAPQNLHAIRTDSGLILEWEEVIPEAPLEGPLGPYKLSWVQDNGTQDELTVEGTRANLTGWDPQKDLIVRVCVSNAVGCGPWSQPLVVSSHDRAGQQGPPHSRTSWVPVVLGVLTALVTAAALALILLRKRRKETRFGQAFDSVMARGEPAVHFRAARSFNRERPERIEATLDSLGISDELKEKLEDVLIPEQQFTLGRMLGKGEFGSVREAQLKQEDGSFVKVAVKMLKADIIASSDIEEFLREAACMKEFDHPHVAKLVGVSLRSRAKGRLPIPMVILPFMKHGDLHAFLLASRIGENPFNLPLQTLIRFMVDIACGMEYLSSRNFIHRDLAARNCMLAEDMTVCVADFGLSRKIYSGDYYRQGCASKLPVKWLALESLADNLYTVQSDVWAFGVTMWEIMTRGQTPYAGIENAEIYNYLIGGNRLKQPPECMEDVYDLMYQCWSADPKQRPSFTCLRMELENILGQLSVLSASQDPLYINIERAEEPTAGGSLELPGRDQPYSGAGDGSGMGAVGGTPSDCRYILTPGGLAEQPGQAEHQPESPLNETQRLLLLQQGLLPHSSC
Sequence of Phospho-Axl (P30530 26-894): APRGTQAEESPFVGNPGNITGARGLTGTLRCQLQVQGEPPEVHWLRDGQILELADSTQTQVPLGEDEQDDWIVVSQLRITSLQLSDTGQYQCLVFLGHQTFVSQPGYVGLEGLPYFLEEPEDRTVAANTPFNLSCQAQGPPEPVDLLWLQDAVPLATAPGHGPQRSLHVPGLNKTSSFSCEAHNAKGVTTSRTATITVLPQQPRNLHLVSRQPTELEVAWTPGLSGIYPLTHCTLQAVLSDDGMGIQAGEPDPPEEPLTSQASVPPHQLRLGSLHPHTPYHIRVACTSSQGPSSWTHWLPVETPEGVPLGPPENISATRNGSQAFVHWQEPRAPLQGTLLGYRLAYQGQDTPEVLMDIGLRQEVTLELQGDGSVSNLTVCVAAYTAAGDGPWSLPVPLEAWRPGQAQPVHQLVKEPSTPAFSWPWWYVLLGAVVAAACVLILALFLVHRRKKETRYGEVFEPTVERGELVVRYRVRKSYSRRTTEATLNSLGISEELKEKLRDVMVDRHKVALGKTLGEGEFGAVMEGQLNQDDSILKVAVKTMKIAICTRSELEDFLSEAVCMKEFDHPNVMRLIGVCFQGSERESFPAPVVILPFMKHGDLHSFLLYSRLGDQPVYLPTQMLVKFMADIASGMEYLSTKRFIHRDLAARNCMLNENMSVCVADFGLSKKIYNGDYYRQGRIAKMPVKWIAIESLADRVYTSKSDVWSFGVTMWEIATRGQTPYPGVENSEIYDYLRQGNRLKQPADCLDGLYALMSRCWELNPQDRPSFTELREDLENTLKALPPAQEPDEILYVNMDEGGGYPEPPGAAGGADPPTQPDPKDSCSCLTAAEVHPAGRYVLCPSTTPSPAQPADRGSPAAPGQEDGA

SMILES	IC50 ([1]; HTRF, 60 min room temperature)	IC50 [2]	IC50 [3]	IC50 ([2]; HTRF, 60 min room temperature)	other results
CC(C)Nc1nc(-c2cccc(C3(CN)Cc4ccccc4C3)c2)c2cc[nH]c2n1 [Example 88, 4-{3-[2-(Aminomethyl)-2,3-dihydro-1H-inden-2-yl]phenyl}-N-isopropyl-7H-pyrrolo[2,3-d]pyrimidin-2-amine]	< 500 nM	> 3000 nM	< 500 nM	–	–
NCC1(c2cc(-c3ccnc4[nH]ncc34)ccn2)Cc2ccccc2C1 [Example 97, 1-{2-[4-(1H-Pyrazolo[3,4-b]pyridin-4-yl)pyridin-2-yl]-2,3-dihydro-1H-inden-2-yl}methanamine]	< 500 nM	–	–	1000 to 3000 nM	IC50 [4]: < 500 nM
Cn1ccc(C(=O)NCC2(c3cccc(-c4ncnc5[nH]ccc45)c3)Cc3ccccc3C2)n1 [Example 29]	1000 to 3000 nM	–	–	> 3000 nM	IC50 [4]: 1000 to 3000 nM
NCC1(c2cccc(-c3nc(NC4CCCCC4)nc4[nH]ccc34)c2)Cc2ccccc2C1 [Example 91, 4-{3-[2-(Aminomethyl)-2,3-dihydro-1H-inden-2-yl]phenyl}-N-cyclohexyl-7H-pyrrolo[2,3-d]pyrimidin-2-amine]	< 500 nM	–	< 500 nM	1000 to 3000 nM	–
Cc1ncoc1C(=O)NCC1(c2cccc(-c3ncnc4[nH]ccc34)c2)Cc2ccccc2C1 [Example 30]	500 to 1000 nM	–	–	> 3000 nM	IC50 [4]: 500 to 1000 nM
CNc1nc(-c2cccc(C3(CN)Cc4ccccc4C3)c2)c2cc[nH]c2n1 [Example 86, 4-{3-[2-(Aminomethyl)-2,3-dihydro-1H-inden-2-yl]phenyl}-N-methyl-7H-pyrrolo[2,3-d]pyrimidin-2-amine]	< 500 nM	–	< 500 nM	1000 to 3000 nM	–
N#Cc1ccc2c(c1)CC(CN)(c1cccc(-c3ncnc4[nH]ccc34)c1)C2 (stereo not shown) [Example 49, 2-(Aminomethyl)-2-[3-(7H-pyrrolo[2,3-d]pyrimidin-4-yl)phenyl]indane-5-carbonitrile]	< 500 nM	–	< 500 nM	1000 to 3000 nM	–
CCNc1nc(-c2cccc(C3(CN)Cc4ccccc4C3)c2)c2cc[nH]c2n1 [Example 87, 4-{3-[2-(Aminomethyl)-2,3-dihydro-1H-inden-2-yl]phenyl}-N-ethyl-7H-pyrrolo[2,3-d]pyrimidin-2-amine]	< 500 nM	–	< 500 nM	1000 to 3000 nM	–
CCn1cnc(-c2ccc3c(c2)CC(CN)(c2cccc(-c4ncnc5[nH]ccc45)c2)C3)c1 (stereo not shown) [Example 76, 1-{5-(1-Ethyl-1H-imidazol-4-yl)-2-[3-(7H-pyrrolo[2,3-d]pyrimidin-4-yl)phenyl]-2,3-dihydro-1H-inden-2-yl}methanamine]	–	–	< 500 nM	500 to 1000 nM	IC50 [1]: < 500 nM
NCC1(c2cc(-c3nc(Nc4cccc(CN5CCOCC5)c4)nc4[nH]ccc34)ccn2)Cc2ccccc2C1 [Example 95, 4-{2-[2-(Aminomethyl)-2,3-dihydro-1H-inden-2-yl]pyridin-4-yl}-N-[3-(morpholin-4-ylmethyl)phenyl]-7H-pyrrolo[2,3-d]pyrimidin-2-amine]	< 500 nM	< 500 nM	< 500 nM	–	–
CCOc1cn(-c2ccc(F)cc2C)nc1C(=O)Nc1ccc(Oc2ccnc3cc(OC)c(OC)cc23)c(F)c1 [LDC1267]	–	–	–	–	metastasis in tumor models [5]: blocks metastasis in tumor models with different histologies; NK cell activation [6]: activates NK cells
NCC1(n2cc(-c3ncnc4[nH]ccc34)ccc2=O)Cc2ccccc2C1 [Example 100, 1-[2-(Aminomethyl)-2,3-dihydro-1H-inden-2-yl]-5-(7H-pyrrolo[2,3-d]pyrimidin-4-yl)pyridin-2(1H)-one]	< 500 nM	–	< 500 nM	–	–
NCC1(c2cccc(-c3ncnc4[nH]ccc34)c2)Cc2ccc(CN3CCC[C@@H]3C(N)=O)cc2C1 (stereo partly drawn) [Example 43, (2R)-1-((2-(3-(7H-Pyrrolo[2,3-d]pyrimidin-4-yl)phenyl)-2-(aminomethyl)-2,3-dihydro-1H-inden-5-yl)methyl)pyrrolidine-2-carboxamide]	> 3000 nM	> 3000 nM	–	–	–
NCC1(c2cccc(-c3ncnc4[nH]ccc34)c2)Cc2ccc(N3CC(F)C3)cc2C1 (stereo not shown) [Example 56, 1-{5-(3-Fluoroazetidin-1-yl)-2-[3-(7H-pyrrolo[2,3-d]pyrimidin-4-yl)phenyl]-2,3-dihydro-1H-inden-2-yl}methanamine]	< 500 nM	–	< 500 nM	1000 to 3000 nM	–
NCCC1(c2cccc(-c3ncnc4[nH]ccc34)c2)Cc2ccccc2C1 [Example 37, 2-{2-[3-(7H-Pyrrolo[2,3-d]pyrimidin-4-yl)phenyl]-2,3-dihydro-1H-inden-2-yl}ethanamine]	< 500 nM	> 3000 nM	–	–	–
NCC1(c2cccc(-c3ncnc4[nH]ccc34)c2)Cc2ccc(-c3ccc(N4CCCC4)nc3)cc2C1 (stereo not shown) [Example 75, 1-{5-(6-Pyrrolidin-1-ylpyridin-3-yl)-2-[3-(7H-pyrrolo[2,3-d]pyrimidin-4-yl)phenyl]-2,3-dihydro-1H-inden-2-yl}methanamine]	< 500 nM	> 3000 nM	–	–	–
NCC1(c2cccc(-c3nc(NC4CCCC4)nc4[nH]ccc34)c2)Cc2ccccc2C1 [Example 90, 4-{3-[2-(Aminomethyl)-2,3-dihydro-1H-inden-2-yl]phenyl}-N-cyclopentyl-7H-pyrrolo[2,3-d]pyrimidin-2-amine]	< 500 nM	–	< 500 nM	500 to 1000 nM	–
COc1cnc2[nH]ccc2c1-c1ccnc(C2(CN)Cc3ccccc3C2)c1 [Example 96, 1-{2-[4-(5-Methoxy-1H-pyrrolo[2,3-b]pyridin-4-yl)pyridin-2-yl]-2,3-dihydro-1H-inden-2-yl}methanamine]	–	< 500 nM	< 500 nM	–	IC50 [1]: < 500 nM
Cn1cc(Nc2nc(-c3ccnc(C4(CN)Cc5ccccc5C4)c3)c3cc[nH]c3n2)cn1 [Example 94, 4-{2-[2-(Aminomethyl)-2,3-dihydro-1H-inden-2-yl]pyridin-4-yl}-N-(1-methyl-1H-pyrazol-4-yl)-7H-pyrrolo[2,3-d]pyrimidin-2-amine]	< 500 nM	< 500 nM	< 500 nM	–	–
Cn1nccc1C(=O)NCC1(c2cccc(-c3ncnc4[nH]ccc34)c2)Cc2ccccc2C1 [Example 32, 1-Methyl-N-({2-[3-(7H-pyrrolo[2,3-d]pyrimidin-4-yl)phenyl]-2,3-dihydro-1H-inden-2-yl}methyl)-1H-pyrazole-5-carboxamide]	> 3000 nM	> 3000 nM	> 3000 nM	–	–
N#CCC1(n2cc(-c3ncnc4[nH]ccc34)cn2)CN(C2CCN(C(=O)c3ccnc(C(F)(F)F)n3)CC2)C1 [Compound 9, [3-[4-(7H-pyrrolo[2,3-d]pyrimidin-4-yl)-1H-pyrazol-1-yl]-1-(1-{[2-(trifluoromethyl)pyrimidin-4-yl]carbonyl}piperidin-4-yl)azetidin-3-yl]acetonitrile]	–	–	–	–	JAK2/JAK1 [7]: >10
CC(O)C1CCN(c2ccc3c(c2)CC(CN)(c2cccc(-c4ncnc5[nH]ccc45)c2)C3)C1 (stereo not shown) [Example 55, 1-(1-{2-(Aminomethyl)-2-[3-(7H-pyrrolo[2,3-d]pyrimidin-4-yl)phenyl]-2,3-dihydro-1H-inden-5-yl}pyrrolidin-3-yl)ethanol]	> 3000 nM	> 3000 nM	–	–	–
O=C(NCCC1(c2cccc(-c3ncnc4[nH]ccc34)c2)Cc2ccccc2C1)C1CC1 [Example 39, N-(2-{2-[3-(7H-Pyrrolo[2,3-d]pyrimidin-4-yl)phenyl]-2,3-dihydro-1H-inden-2-yl}ethyl)cyclopropanecarboxamide]	< 500 nM	> 3000 nM	–	–	–
CN(C)c1ccc(-c2ccc3c(c2)CC(CN)(c2cccc(-c4ncnc5[nH]ccc45)c2)C3)cc1 (stereo not shown) [Example 72, 4-{2-(Aminomethyl)-2-[3-(7H-pyrrolo[2,3-d]pyrimidin-4-yl)phenyl]-2,3-dihydro-1H-inden-5-yl}-N,N-dimethylaniline]	< 500 nM	< 500 nM	–	–	–
NCC1(c2cccc(-c3nc(NC4CCC4)nc4[nH]ccc34)c2)Cc2ccccc2C1 [Example 89, 4-{3-[2-(Aminomethyl)-2,3-dihydro-1H-inden-2-yl]phenyl}-N-cyclobutyl-7H-pyrrolo[2,3-d]pyrimidin-2-amine]	< 500 nM	< 500 nM	< 500 nM	–	–
CCCCNc1nc(-c2cccc(C3(CN)Cc4ccccc4C3)c2)c2cc[nH]c2n1 [Example 80, 4-{3-[2-(Aminomethyl)-2,3-dihydro-1H-inden-2-yl]phenyl}-N-butyl-7H-pyrrolo[2,3-d]pyrimidin-2-amine]	< 500 nM	< 500 nM	< 500 nM	–	–
NCC1(c2cccc(-c3ncnc4[nH]ccc34)c2)CCc2ccccc2C1 (stereo not shown) [Example 99, 1-{2-[3-(7H-Pyrrolo[2,3-d]pyrimidin-4-yl)phenyl]-1,2,3,4-tetrahydronaphthalen-2-yl}methanamine]	–	–	< 500 nM	–	IC50 [1]: < 500 nM
NCC1(c2cccc(-c3ncnc4[nH]ccc34)c2)Cc2ccc(CN3CC(O)C3)cc2C1 (stereo not shown) [Example 48, 1-((2-(3-(7H-Pyrrolo[2,3-d]pyrimidin-4-yl)phenyl)-2-(aminomethyl)-2,3-dihydro-1H-inden-5-yl)methyl)azetidin-3-ol]	> 3000 nM	–	> 3000 nM	1000 to 3000 nM	–
